US8895504B2, “Amylin derivatives” (priority 2008, dated 2014)
*1 amine or outer side, *2 acyl side, *3 side chain or, on linkers, in order; H or OH if unused. Where a SMILES comes first, the peptide text is derived from it. Bridges are numbered along the chain shown (N, C = ends). The star is where a group is joined. C20 diacid = O=C(O)CCCCCCCCCCCCCCCCCCC(=O)*; γGlu = O=C(O)[C@H](CCC(=O)[*:2])N[*:1]; AEEA = NCCOCCOCC(=O)O; GABA = NCCCC(=O)O

target: T1, Amylin 3(a) receptor (human calcitonin receptor (CTa) and RAMP-3) (Homo sapiens, UniProt O60896+P30988); test: Luciferase assay (III), BHK Amylin 3(a)//CRE-luc cells; type: cell-based; details: BHK cells with Amylin 3(a) receptor and CRE luciferase reporter, 4 hours incubation; read-out: Potency Luciferase
T1 construct: expressed in transfected cells; host or cells: BHK570 cells, stably transfected with a CRE-luciferase reporter
Excerpt: It has previously been published (Poyner D R et al 2002, Pharmacological Reviews 54(2) 233-246) that activation of Amylin receptors (coexpression of Calcitonin receptor and receptor activity modifying peptides RAMPs) by Amylin leads to an increase in the intracellular concentration of cAMP. Consequently, transcription is activated at promoters containing multiple copies of the cAMP response element (CRE). It is thus possible to measure Amylin activity by use of a CRE luciferase reporter gene introduced into BHK cells also expressing an Amylin receptor.
2. Construction of an Amylin 3(a)/CRE-luc Cell Line
A BHK570 cell line stably transfected with the human calcitonin receptor (CTa) and a CRE-responsive luciferase reportergene. The cell line was further transfected with RAMP-3, using standard methods. This turns the Calcitonin receptor into an Amylin 3(a) receptor. Methotrexate, Neomycin, and Hygromycin are selection markers for luciferase, the Calcitonin receptor, and RAMP-3, respectively.
3. Amylin Luciferase Assay
To perform activity assays, BHK Amylin 3(a)//CRE-luc cells were seeded in white 96 well culture plates at a density of about 20,000 cells/well. The cells were in 100 μl growth medium (DMEM with 10% FBS, 1% Pen/Strep, 1 mM Na-pyruvate, 250 nM Methotrexate, 500 μg/ml Neomycin, and 400 μg/ml Hygromycin). After incubation overnight at 37° C. and 5% CO2, the growth medium was replaced by 50 μl/well assay medium (DMEM (without phenol red), Glumamax™, 10% FBS, and 10 mM Hepes, pH 7,4). Further, 50 μl/well of standard or sample in assay buffer were added. After 4 hours incubation at 37° C. and 5% CO2, the assay medium with standard or sample were removed and replaced by 100 μl/well PBS. Further, 100 μl/well LucLite™ was added. The plates were sealed and incubated at room temperature for 30 minutes. Finally, luminescence was measured on a TopCounter (Packard) in SPC (single photon counting) mode.

T1 sequence (O60896 24-148): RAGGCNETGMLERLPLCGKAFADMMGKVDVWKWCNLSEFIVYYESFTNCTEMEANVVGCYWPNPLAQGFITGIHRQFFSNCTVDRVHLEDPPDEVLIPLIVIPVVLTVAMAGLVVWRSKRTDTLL
T1 sequence (P30988 25-474): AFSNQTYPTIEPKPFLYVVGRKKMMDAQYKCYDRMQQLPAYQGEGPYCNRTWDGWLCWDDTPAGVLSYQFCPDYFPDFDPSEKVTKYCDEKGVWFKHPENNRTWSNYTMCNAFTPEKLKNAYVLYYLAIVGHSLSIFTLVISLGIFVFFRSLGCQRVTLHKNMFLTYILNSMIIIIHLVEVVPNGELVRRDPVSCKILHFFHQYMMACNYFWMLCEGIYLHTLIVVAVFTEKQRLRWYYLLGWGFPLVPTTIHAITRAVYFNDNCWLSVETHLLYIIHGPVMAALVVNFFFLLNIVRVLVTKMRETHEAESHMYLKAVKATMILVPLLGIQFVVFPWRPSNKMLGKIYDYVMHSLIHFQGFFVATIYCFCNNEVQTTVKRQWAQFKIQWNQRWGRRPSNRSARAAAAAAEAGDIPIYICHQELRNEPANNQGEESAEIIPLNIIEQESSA

| SMILES | EC50 |
| --- | --- |
| CC[C@H](C)[C@H](NC(=O)[C@@H]1CCCN1C(=O)CNC(=O)[C@H](Cc1ccccc1)NC(=O)[C@H](CC(N)=O)NC(=O)[C@H](CC(N)=O)NC(=O)[C@H](CO)NC(=O)[C@H](CO)NC(=O)[C@H](Cc1c[nH]cn1)NC(=O)[C@H](Cc1c[nH]cn1)NC(=O)[C@H](CC(C)C)NC(=O)[C@H](Cc1ccccc1)NC(=O)[C@H](CC(N)=O)NC(=O)[C@H](C)NC(=O)[C@H](CC(C)C)NC(=O)[C@H](CCCNC(=N)N)NC(=O)[C@H](CCC(N)=O)NC(=O)[C@@H](NC(=O)[C@H](C)NC(=O)[C@@H]1CSSC[C@H](NC(=O)COCCOCCNC(=O)CC[C@H](NC(=O)CCCCCCCCCCCCCCCCCCC(=O)O)C(=O)O)C(=O)N[C@@H](CC(N)=O)C(=O)N[C@@H]([C@@H](C)O)C(=O)N[C@@H](C)C(=O)N[C@@H]([C@@H](C)O)C(=O)N1)[C@@H](C)O)C(=O)N[C@@H](CC(C)C)C(=O)N1CCC[C@H]1C(=O)N1CCC[C@H]1C(=O)N[C@H](C(=O)N[C@@H](CC(N)=O)C(=O)N[C@H](C(=O)NCC(=O)N[C@@H](CO)C(=O)N[C@@H](CC(N)=O)C(=O)N[C@H](C(=O)N[C@@H](Cc1ccc(O)cc1)C(N)=O)[C@@H](C)O)C(C)C)[C@@H](C)O [Example 16, N-alpha-[2-(2-{2-[4-(S)-Carboxy-4-(19-carboxynonadecanoylamino)butyrylamino]ethoxy}ethoxy)acetyl]-[His17]-pramlintide (2-37)] ({C20 diacid-γGlu-AEEA}-CNTATCATQRLANFLHHSSNNFGPILPPTNVGSNTY-NH2; disulfide 1-6) | 100 pM |
| CC[C@H](C)[C@H](NC(=O)[C@@H]1CCCN1C(=O)CNC(=O)[C@H](Cc1ccccc1)NC(=O)[C@H](CC(N)=O)NC(=O)[C@H](CC(N)=O)NC(=O)[C@H](CO)NC(=O)[C@H](CO)NC(=O)[C@H](Cc1c[nH]cn1)NC(=O)[C@H](CCCNC(=N)N)NC(=O)[C@H](CC(C)C)NC(=O)[C@H](Cc1ccccc1)NC(=O)[C@H](CC(N)=O)NC(=O)[C@H](C)NC(=O)[C@H](CC(C)C)NC(=O)[C@H](CCCNC(=N)N)NC(=O)[C@H](CCC(N)=O)NC(=O)[C@@H](NC(=O)[C@H](C)NC(=O)[C@@H]1CSSC[C@H](NC(=O)[C@H](CCCCN)NC(=O)[C@H](CCCNC(=N)N)NC(=O)CCCNC(=O)CCCCCCCCCCCCCCCCCCC(=O)O)C(=O)N[C@@H](CC(N)=O)C(=O)N[C@@H]([C@@H](C)O)C(=O)N[C@@H](C)C(=O)N[C@@H]([C@@H](C)O)C(=O)N1)[C@@H](C)O)C(=O)N[C@@H](CC(C)C)C(=O)N1CCC[C@H]1C(=O)N1CCC[C@H]1C(=O)N[C@H](C(=O)N[C@@H](CC(N)=O)C(=O)N[C@H](C(=O)NCC(=O)N[C@@H](CO)C(=O)N[C@@H](CC(N)=O)C(=O)N[C@H](C(=O)N[C@@H](Cc1ccc(O)cc1)C(N)=O)[C@@H](C)O)C(C)C)[C@@H](C)O [Example 25, N-alpha-[4-(19-Carboxynonadecanoylamino)butyryl]-Arg-[Arg17]-pramlintide] ({C20 diacid-GABA}-RKCNTATCATQRLANFLRHSSNNFGPILPPTNVGSNTY-NH2; disulfide 3-8) | 30 pM |
| CC(C)C[C@H](NC(=O)[C@H](CCCNC(=N)N)NC(=O)[C@H](CCC(N)=O)NC(=O)[C@@H](NC(=O)[C@H](C)NC(=O)[C@@H]1CSSC[C@H](NC(=O)[C@H](CCC(=O)O)NC(=O)[C@H](CCCNC(=N)N)NC(=O)[C@H](CCC(=O)O)NC(=O)CC[C@H](NC(=O)CCCCCCCCCCCCCCCCCCC(=O)O)C(=O)O)C(=O)N[C@@H](CC(N)=O)C(=O)N[C@@H]([C@@H](C)O)C(=O)N[C@@H](C)C(=O)N[C@@H]([C@@H](C)O)C(=O)N1)[C@@H](C)O)C(=O)N[C@@H](C)C(=O)N[C@@H](CC(=O)O)C(=O)N[C@@H](Cc1ccccc1)C(=O)N[C@@H](CC(C)C)C(=O)N[C@@H](Cc1c[nH]cn1)C(=O)N[C@@H](Cc1c[nH]cn1)C(=O)N[C@@H](CO)C(=O)N[C@@H](CO)C(=O)N[C@@H](CCC(N)=O)C(=O)N[C@@H](CC(N)=O)C(=O)N[C@@H](Cc1ccccc1)C(=O)NCC(=O)N[C@@H](C)C(=O)N1CCC[C@H]1C(=O)N[C@@H](CC(C)C)C(=O)N[C@@H](CO)C(=O)N[C@@H](CO)C(=O)N[C@H](C(=O)N[C@@H](CC(N)=O)C(=O)N[C@H](C(=O)NCC(=O)N[C@@H](CO)C(=O)N[C@@H](CC(N)=O)C(=O)N[C@H](C(=O)N[C@@H](Cc1ccc(O)cc1)C(N)=O)[C@@H](C)O)C(C)C)[C@@H](C)O [Example 48, N-alpha-[(S)-4-Carboxy-4-(19-carboxynonadecanoylamino)butyryl]-Glu-Arg-[Glu1,Asp14,His17,Gln21,Ala25,Pro26,Ser28,Ser29]-pramlintide] ({C20 diacid-γGlu}-ERECNTATCATQRLADFLHHSSQNFGAPLSSTNVGSNTY-NH2; disulfide 4-9) | 60 pM |
| CC[C@H](C)[C@H](NC(=O)[C@@H]1CCCN1C(=O)CNC(=O)[C@H](Cc1ccccc1)NC(=O)[C@H](CC(N)=O)NC(=O)[C@H](CC(N)=O)NC(=O)[C@H](CO)NC(=O)[C@H](CO)NC(=O)[C@H](Cc1c[nH]cn1)NC(=O)[C@H](C)NC(=O)[C@H](CC(C)C)NC(=O)[C@H](Cc1ccccc1)NC(=O)[C@H](CC(N)=O)NC(=O)[C@H](C)NC(=O)[C@H](CC(C)C)NC(=O)[C@H](CCCNC(=N)N)NC(=O)[C@H](CCC(N)=O)NC(=O)[C@@H](NC(=O)[C@H](C)NC(=O)[C@@H]1CSSC[C@H](NC(=O)CC[C@H](NC(=O)CCCCCCCCCCCCCCCCCCC(=O)O)C(=O)O)C(=O)N[C@@H](CC(N)=O)C(=O)N[C@@H]([C@@H](C)O)C(=O)N[C@@H](C)C(=O)N[C@@H]([C@@H](C)O)C(=O)N1)[C@@H](C)O)C(=O)N[C@@H](CC(C)C)C(=O)N1CCC[C@H]1C(=O)N1CCC[C@H]1C(=O)N[C@H](C(=O)N[C@@H](CC(N)=O)C(=O)N[C@H](C(=O)NCC(=O)N[C@@H](CO)C(=O)N[C@@H](CC(N)=O)C(=O)N[C@H](C(=O)N[C@@H](Cc1ccc(O)cc1)C(N)=O)[C@@H](C)O)C(C)C)[C@@H](C)O [Example 12, N-alpha-[(S)-4-Carboxy-4-(19-carboxynonadecanoylamino)butyryl]-[Ala17]-pramlintide (2-37)] ({C20 diacid-γGlu}-CNTATCATQRLANFLAHSSNNFGPILPPTNVGSNTY-NH2; disulfide 1-6) | 100 pM |
| CC[C@H](C)[C@H](NC(=O)[C@@H]1CCCN1C(=O)CNC(=O)[C@H](Cc1ccccc1)NC(=O)[C@H](CC(N)=O)NC(=O)[C@H](CC(N)=O)NC(=O)[C@H](CO)NC(=O)[C@H](CO)NC(=O)[C@H](Cc1c[nH]cn1)NC(=O)[C@H](Cc1c[nH]cn1)NC(=O)[C@H](CC(C)C)NC(=O)[C@H](Cc1ccccc1)NC(=O)[C@H](CC(N)=O)NC(=O)[C@H](C)NC(=O)[C@H](CC(C)C)NC(=O)[C@H](CCCNC(=N)N)NC(=O)[C@H](CCC(N)=O)NC(=O)[C@@H](NC(=O)[C@H](C)NC(=O)[C@@H]1CSSC[C@H](NC(=O)[C@H](CCCNC(=N)N)NC(=O)[C@H](Cc2c[nH]cn2)NC(=O)[C@H](Cc2c[nH]cn2)NC(=O)CC[C@H](NC(=O)CCCCCCCCCCCCCCCCCCC(=O)O)C(=O)O)C(=O)N[C@@H](CC(N)=O)C(=O)N[C@@H]([C@@H](C)O)C(=O)N[C@@H](C)C(=O)N[C@@H]([C@@H](C)O)C(=O)N1)[C@@H](C)O)C(=O)N[C@@H](CC(C)C)C(=O)N1CCC[C@H]1C(=O)N1CCC[C@H]1C(=O)N[C@H](C(=O)N[C@@H](CC(N)=O)C(=O)N[C@H](C(=O)NCC(=O)N[C@@H](CO)C(=O)N[C@@H](CC(N)=O)C(=O)N[C@H](C(=O)N[C@@H](Cc1ccc(O)cc1)C(N)=O)[C@@H](C)O)C(C)C)[C@@H](C)O [Example 71, N-alpha-[(S)-4-Carboxy-4-(19-carboxynonadecanoylamino)butyryl]-His-His-[Arg1,His17]-pramlintide] ({C20 diacid-γGlu}-HHRCNTATCATQRLANFLHHSSNNFGPILPPTNVGSNTY-NH2; disulfide 4-9) | 90 pM |
